Where a name gives a salt, the structure may show the parent alone.
Key:
[1] = Physical stability of Form 1 in excipient mixtures and tablets at 50° C./75% RH, PXRD; format: physicochemical; settings: 2 weeks
[2] = Slurry experiments, thermodynamic stability of anhydrous lorlatinib maleate (Form 1); format: physicochemical; settings: 2 weeks
[3] = Solid-state physical stability of Form 1 API at temperature/% RH, form checked by PXRD; format: physicochemical; settings: for Solid Form (accelerated stability, PXRD): API
Excerpt: The physical stability of anhydrous lorlatinib maleate (Form 1) API was investigated at a variety of temperatures and percent relative humidities (% RH). […]

[4] = Physical stability of Form 1 in excipient mixtures and tablets at 50° C./75% RH, PXRD; format: physicochemical; settings: for Output Solid Form: 1 week
Procedure: Binary and tertiary mixtures of Form 1 with various excipients were stored at 50° C./75% RH and solid form changes were monitored using PXRD.

[5] = Slurry experiments, thermodynamic stability of anhydrous lorlatinib maleate (Form 1); format: physicochemical
Procedure: The thermodynamic stability of anhydrous lorlatinib maleate (Form 1) and lorlatinib maleate hydrate (Form 2) was evaluated employing slurry experiments under a range of water activity and temperature conditions. Suspensions of Form 1 were equilibrated for two weeks in acetonitrile/water and methanol/water solvent systems with water activities (Aw) in the range of 0.1 to 0.9, at three different temperatures: 5° C., room temperature and 40° C. After 2 weeks, the solids in equilibrium were isolated and solid form was evaluated by PXRD.
Even a minimal amount of water (Aw=0.1) was sufficient to cause conversion of Form 1 to Form 2.

[6] = Physical stability of Form 1 drug product vs. acetic acid solvate drug product
Excerpt: The physical stabilities of Form 1 and lorlatinib acetic acid solvate as drug product were investigated under a variety of conditions.

SMILES: C[C@H]1Oc2cc(cnc2N)-c2c(nn(C)c2C#N)CN(C)C(=O)c2ccc(F)cc21 [anhydrous lorlatinib maleate (Form 1), Anhydrous (10R)-7-amino-12-fluoro-2,10,16-trimethyl-15-oxo-10,15,16,17-tetrahydro-2H-8,4-(metheno)pyrazolo[4,3-h][2,5,11]benzoxadiazacyclotetradecine-3-carbonitrile (PF-06463922) Maleate (Form 1)]
- Output Solid Form ([1]; tablet with DCP, magnesium stearate, Explotab): Form 1
- Output Solid Form ([1]; tablet with DCP, magnesium stearate, Polyplasdone XL): Form 1
- Output Solid Form ([1]; tablet with DCP, stearic acid, Explotab): Form 1
- Output Solid Form ([1]; tablet with DCP, stearic acid, Polyplasdone XL): Form 1
- Output Solid Form ([1]; tablet with mannitol, stearic acid, Polyplasdone XL): Form 1
- Slurry output, solid form by PXRD ([2]; acetonitrile, Aw 0, RT): Form 1
- Slurry output, solid form by PXRD ([2]; methanol, Aw 0, 40° C.): Form 1
- Stability with respect to lorlatinib maleate hydrate (Form 2) [3]: meta-stable
- Solid Form (accelerated stability, PXRD) ([3]; 25° C./60% RH without desiccation, 3 months): Multiple new PXRD peaks were observed, which were consistent with Form 2
- Solid Form (accelerated stability, PXRD) ([3]; 40° C./75% RH without desiccation, 3 months): nearly complete conversion to Form 2
- Solid Form (accelerated stability, PXRD) ([3]; 75% RH, ambient temperature, 6 months, listed as Form 1): full conversion to Form 2
- Solid Form (accelerated stability, PXRD) ([3]; 75% RH, ambient temperature, 6 months, listed as anhydrous lorlatinib maleate Form 1): Form 2
- Solid Form (accelerated stability, PXRD) ([3]; 90% RH, ambient temperature, 6 months, listed as Form 1): full conversion to Form 2
- Solid Form (accelerated stability, PXRD) ([3]; 90% RH, ambient temperature, 6 months, listed as anhydrous lorlatinib maleate Form 1): Form 2
- Output Solid Form ([4]; binary mixture with stearic acid): Form 2
- Solid form changes by PXRD (summary) ([4]; mixtures containing magnesium stearate): form changes after 2 weeks
- Solid form changes by PXRD (summary) ([4]; mixtures containing stearic acid): form changes after 1 week
- Output Solid Form ([4]; tertiary mixture with stearic acid, lactose): Form 2
- Output Solid Form ([4]; tertiary mixture with stearic acid, mannitol): Form 2
- Slurry output, solid form by PXRD ([5]; acetonitrile, Aw 0, 5° C., 2 weeks): Form 1
- Slurry output, solid form by PXRD ([5]; acetonitrile, Aw 0, 40° C., 2 weeks): Form 1
- Slurry output, solid form by PXRD ([5]; acetonitrile/water, Aw 0.1, 5° C., 2 weeks): Form 2
- Slurry output, solid form by PXRD ([5]; acetonitrile/water, Aw 0.1, 40° C., 2 weeks): Form 2
- Slurry output, solid form by PXRD ([5]; acetonitrile/water, Aw 0.1, RT, 2 weeks): Form 2
- Slurry output, solid form by PXRD ([5]; acetonitrile/water, Aw 0.3, 5° C., 2 weeks): Form 2
- Slurry output, solid form by PXRD ([5]; acetonitrile/water, Aw 0.3, 40° C., 2 weeks): Form 2
- Slurry output, solid form by PXRD ([5]; acetonitrile/water, Aw 0.3, RT, 2 weeks): Form 2
- Slurry output, solid form by PXRD ([5]; acetonitrile/water, Aw 0.5, 5° C., 2 weeks): Form 2
- Slurry output, solid form by PXRD ([5]; acetonitrile/water, Aw 0.5, 40° C., 2 weeks): Form 2
- Slurry output, solid form by PXRD ([5]; acetonitrile/water, Aw 0.5, RT, 2 weeks): Form 2
- Slurry output, solid form by PXRD ([5]; acetonitrile/water, Aw 0.75, 5° C., 2 weeks): Form 2
- Slurry output, solid form by PXRD ([5]; acetonitrile/water, Aw 0.75, 40° C., 2 weeks): Form 2
- Slurry output, solid form by PXRD ([5]; acetonitrile/water, Aw 0.75, RT, 2 weeks): Form 2
- Slurry output, solid form by PXRD ([5]; acetonitrile/water, Aw 0.9, 5° C., 2 weeks): Form 2
- Slurry output, solid form by PXRD ([5]; acetonitrile/water, Aw 0.9, 40° C., 2 weeks): Form 2
- Slurry output, solid form by PXRD ([5]; acetonitrile/water, Aw 0.9, RT, 2 weeks): Form 2
- Form conversion in slurry (summary) ([5]; anhydrous conditions (Aw=0)): no conversion to the hydrate Form 2 detected
- Slurry output, solid form by PXRD ([5]; methanol, Aw 0, 5° C., 2 weeks): Form 1
- Slurry output, solid form by PXRD ([5]; methanol, Aw 0, RT, 2 weeks): Form 1
- Slurry output, solid form by PXRD ([5]; methanol/water, Aw 0.1, 5° C., 2 weeks): Form 2
- Slurry output, solid form by PXRD ([5]; methanol/water, Aw 0.1, 40° C., 2 weeks): solvate
- Slurry output, solid form by PXRD ([5]; methanol/water, Aw 0.1, 40° C., 2 weeks, listed as Form 1): solvated material
- Slurry output, solid form by PXRD ([5]; methanol/water, Aw 0.1, RT, 2 weeks): Form 2
- Slurry output, solid form by PXRD ([5]; methanol/water, Aw 0.3, 5° C., 2 weeks): Form 2
- Slurry output, solid form by PXRD ([5]; methanol/water, Aw 0.3, 40° C., 2 weeks): solvate
- Slurry output, solid form by PXRD ([5]; methanol/water, Aw 0.3, 40° C., 2 weeks, listed as Form 1): solvated material
- Slurry output, solid form by PXRD ([5]; methanol/water, Aw 0.3, RT, 2 weeks): Form 2
- Slurry output, solid form by PXRD ([5]; methanol/water, Aw 0.5, 5° C., 2 weeks): Form 2
- Slurry output, solid form by PXRD ([5]; methanol/water, Aw 0.5, 40° C., 2 weeks): Form 2
- Slurry output, solid form by PXRD ([5]; methanol/water, Aw 0.5, RT, 2 weeks): Form 2
- Slurry output, solid form by PXRD ([5]; methanol/water, Aw 0.75, 5° C., 2 weeks): Form 2
- Slurry output, solid form by PXRD ([5]; methanol/water, Aw 0.75, 40° C., 2 weeks): Form 2
- Slurry output, solid form by PXRD ([5]; methanol/water, Aw 0.75, RT, 2 weeks): Form 2
- Slurry output, solid form by PXRD ([5]; methanol/water, Aw 0.9, 5° C., 2 weeks): Form 2
- Slurry output, solid form by PXRD ([5]; methanol/water, Aw 0.9, 40° C., 2 weeks): Form 2
- Slurry output, solid form by PXRD ([5]; methanol/water, Aw 0.9, RT, 2 weeks): Form 2
- Form conversion in slurry (summary) ([5]; water activities 0.1 to 0.9, temperatures from 5° C. to 40° C., 2 weeks): converts to the thermodynamically more stable lorlatinib maleate hydrate (Form 2)
- Physical stability of representative drug product formulation relative to the acetic acid solvate of lorlatinib free base ([6]; drug product formulation): superior physical stability
- impurity (solid phase impurity), physical stability of drug product ([6]; 50° C./75% RH, 2 weeks): ~10% impurity
- impurity (solid phase impurity), physical stability of drug product ([6]; 70° C./10% RH, 3 weeks): ~10% impurity
- impurity (solid phase impurity), physical stability of drug product ([6]; 70° C./40% RH, 2 weeks): ~10% impurity
- impurity (solid phase impurity), physical stability of drug product ([6]; 70° C./75% RH, 1 week): ~10% impurity

Source: patent publication US11078215B2, “Crystalline forms of lorlatinib maleate” (Pfizer Inc., priority 2016, dated 2021)
